One test addresses recombinant streptavidin (Streptomyces avidinii, UniProt P22629). The test can be described thus: fluorescence polarization titration. It counts as binding. The conditions noted are these: PBS; 20 nM biotin-FITC (Millipore-Sigma cat. 53608); labelled compound.
In a further test the target is αCD40-mSAs. Kind of test: fluorescence polarization titration. It counts as binding. The conditions noted are these: PBS; 20 nM biotin-FITC (Millipore-Sigma cat. 53608); labelled compound.

recombinant streptavidin, sequence (P22629 25-183): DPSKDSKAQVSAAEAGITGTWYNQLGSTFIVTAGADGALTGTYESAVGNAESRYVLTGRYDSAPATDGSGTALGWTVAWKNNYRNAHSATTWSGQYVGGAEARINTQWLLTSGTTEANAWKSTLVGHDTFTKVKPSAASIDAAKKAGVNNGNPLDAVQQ

With biotin-FITC, the dissociation constant Kd (in general, the free concentration of one partner at which half of the binding sites on the other are occupied at equilibrium, for simple one-to-one binding) at recombinant streptavidin was found to be 20.6 nM; on αCD40-mSAs, 69.2 nM.
